ChEMBL document CHEMBL5338722, “Optical-Controlled Kinetic Switch: Fine-Tuning of the Residence Time of an Antagonist Binding to the Vasopressin V2 Receptor in In Vitro, Ex Vivo, and In Vivo Models of ADPKD” (J Med Chem, 2023)
One block for each compound: values may come before it. Activity calls are given as the source filed them. No cut-off for these calls is given here.

What was measured:
Vasopressin V2 receptor [1] = biological target: T1, Vasopressin V2 receptor (Homo sapiens, UniProt P30518); experiment: (§1) Displacement of conivaptan-red fluorescent probe from SNAP-tagged human vasopressin V2 receptor expressed in HEK293 cells assessed as residence time at 1 uM compound pre-illuminated for 10 mins with light at 435 nm by dual-point competition association assay; assay type: cell-based; conditions: filed as antagonist
T1 sequence (P30518 whole entry): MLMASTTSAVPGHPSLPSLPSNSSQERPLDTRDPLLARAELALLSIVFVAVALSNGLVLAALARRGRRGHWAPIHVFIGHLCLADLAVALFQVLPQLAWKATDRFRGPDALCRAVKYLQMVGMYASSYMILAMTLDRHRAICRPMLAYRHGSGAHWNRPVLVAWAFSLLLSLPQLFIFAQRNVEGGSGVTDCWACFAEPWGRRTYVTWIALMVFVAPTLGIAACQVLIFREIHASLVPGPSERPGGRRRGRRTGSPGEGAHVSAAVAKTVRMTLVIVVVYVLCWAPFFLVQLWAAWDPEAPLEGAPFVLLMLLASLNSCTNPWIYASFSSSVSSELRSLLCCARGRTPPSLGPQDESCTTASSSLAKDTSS

[2] = Drug uptake in Sprague-Dawley rat kidney at 0.1 uM treated for 30 mins followed by extensive drug wash-out for 4 hrs by LC-MS analysis; assay type: ADME, tissue-based; conditions: in vivo, 0.5 h
Vasopressin V2 receptor [3] = biological target: T1, Vasopressin V2 receptor; experiment: Displacement of conivaptan-red fluorescent probe from SNAP-tagged human vasopressin V2 receptor expressed in HEK293 cells assessed as on-rate constant at 1 uM compound pre-illuminated for 10 mins with light at 435 nm by dual-point competition association assay; assay type: cell-based; conditions: filed as antagonist
Vasopressin V2 receptor [4] = biological target: T1, Vasopressin V2 receptor; experiment: Antagonist activity at human vasopressin V2 receptor expressed in CHO cells assessed as inhibition of vasopressin induced cAMP production at 10 times Ki preincubated for 30 mins followed by two consecutive washouts and irradiated with light at 365 nm during two washouts; assay type: functional, cell-based; conditions: filed as antagonist
Kidney [5] = experiment: Ex vivo target occupancy at vasopressin V2 receptor in Sprague-Dawley rat kidney assessed as endurance in retention time by measuring half life at 0.1 uM treated for 30 mins followed by extensive drug wash-out for 240 mins by LC-MS analysis; assay type: functional, tissue-based
Vasopressin V2 receptor [6] = biological target: T1, Vasopressin V2 receptor; experiment: as §1, with “kinetic rate index by measuring ratio of binding of labeled probe” for “residence time”, “15 mins to 60 mins at IC50” for “1 uM”; assay type: cell-based; conditions: filed as antagonist
Kidney [7] = experiment: Ex vivo inhibition of renal cystogenesis in ADPKD C57BL/6 mouse kidney assessed as suppression of 8-Br-cAMP-induced cyst development at 10 uM measured after 4 days in presence of 8-Br-cAMP by inverted microscopic analysis; assay type: functional, tissue-based; conditions: time 4.0 day
Mus musculus [8] = experiment: In vivo inhibition of renal cystogenesis in Pkd1 knock-out autosomal dominant polycystic kidney disease mouse model assessed as reduction in kidney size at 5 mg/kg, sc administered once daily for 7 days compound pre-irradiated with light at 435 nm prior to administration; assay type: functional, organism-based; conditions: time 7.0 day
Vasopressin V2 receptor [9] = biological target: T1, Vasopressin V2 receptor; experiment: Antagonist activity at human vasopressin V2 receptor expressed in CHO cells assessed as inhibition of AVP-induced cAMP production at 1 uM preincubated for 30 mins followed by two consecutive washouts and irradiated with light at 365 nm during two washouts; assay type: functional, cell-based; conditions: filed as antagonist
[10] = biological target: Vasopressin V1a receptor (Homo sapiens) (UniProt P37288); experiment: Displacement of [3H]vasopressin from human V1A receptor expressed in CHO cell membranes at 1 uM compound pre-illuminated for 10 mins with light at 435 nm by radioligand displacement assay relative to control; conditions: Membrane
Vasopressin V1a receptor (Homo sapiens), sequence (P37288 whole entry, looked up): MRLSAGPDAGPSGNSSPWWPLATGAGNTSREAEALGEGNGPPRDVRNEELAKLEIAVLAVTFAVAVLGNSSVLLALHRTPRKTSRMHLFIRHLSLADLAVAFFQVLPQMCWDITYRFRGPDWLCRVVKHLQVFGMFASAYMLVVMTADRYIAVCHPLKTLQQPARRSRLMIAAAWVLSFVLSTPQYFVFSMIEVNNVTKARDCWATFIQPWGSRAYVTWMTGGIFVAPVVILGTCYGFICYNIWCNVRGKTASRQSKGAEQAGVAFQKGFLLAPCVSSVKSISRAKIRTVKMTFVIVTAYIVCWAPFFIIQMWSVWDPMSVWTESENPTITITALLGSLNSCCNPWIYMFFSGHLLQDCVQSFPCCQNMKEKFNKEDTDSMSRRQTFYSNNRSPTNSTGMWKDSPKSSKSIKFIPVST

[11] = In vivo inhibition of renal cystogenesis in Pkd1 knock-out autosomal dominant polycystic kidney disease mouse model assessed as disease progression at 5 mg/kg, sc administered once daily for 7 days compound pre-irradiated with light at 435 nm prior to administration; assay type: functional; design: scale not given: the % may be the effect or the level left; conditions: time 7 day
Vasopressin V2 receptor [12] = biological target: T1, Vasopressin V2 receptor; experiment: Displacement of conivaptan-red fluorescent probe from SNAP-tagged human vasopressin V2 receptor expressed in HEK293 cells compound pre-illuminated for 10 mins with light at 435 nm and further incubated for 1 hr by HTRF assay; assay type: cell-based
Vasopressin V2 receptor [13] = biological target: T1, Vasopressin V2 receptor; experiment: Displacement of conivaptan-red fluorescent probe from SNAP-tagged human vasopressin V2 receptor expressed in HEK293 cells assessed as off-rate constant at 1 uM compound pre-illuminated for 10 mins with light at 435 nm by dual-point competition association assay; assay type: cell-based; conditions: filed as antagonist
Vasopressin V2 receptor [14] = biological target: T1, Vasopressin V2 receptor; experiment: Displacement of conivaptan-red fluorescent probe from SNAP-tagged human vasopressin V2 receptor expressed in HEK293 cells compound pre-illuminated for 10 mins with light at 365 nm and further incubated for 1 hr by HTRF assay; assay type: cell-based
Vasopressin V2 receptor [15] = biological target: T1, Vasopressin V2 receptor; experiment: Antagonist activity at human vasopressin V2 receptor expressed in CHO cells assessed as inhibition of vasopressin induced cAMP production at 10 times Ki preincubated for 30 mins followed by two consecutive washouts and irradiated with light at 435 nm during two washouts; assay type: functional, cell-based
Vasopressin V2 receptor [16] = biological target: T1, Vasopressin V2 receptor; experiment: (§2) Displacement of conivaptan-red fluorescent probe from SNAP-tagged human vasopressin V2 receptor expressed in HEK293 cells assessed as residence time at 0.1 uM compound pre-illuminated for 10 mins with light at 365 nm by dual-point competition association assay; assay type: cell-based; conditions: filed as antagonist
Vasopressin V2 receptor [17] = biological target: T1, Vasopressin V2 receptor; experiment: Displacement of conivaptan-red fluorescent probe from SNAP-tagged human vasopressin V2 receptor expressed in HEK293 cells assessed as off-rate constant at 0.1 uM compound pre-illuminated for 10 mins with light at 365 nm by dual-point competition association assay; assay type: cell-based; conditions: filed as antagonist
Vasopressin V2 receptor [18] = biological target: T1, Vasopressin V2 receptor; experiment: (§3) Antagonist activity at human vasopressin V2 receptor expressed in CHO cells assessed as inhibition of vasopressin-induced cAMP production at 10 times Ki preincubated for 30 mins followed by two consecutive washouts and irradiated with light at 435 nm in first 30 mins of washout and with light at 365 nm in second 30 mins of washout; assay type: functional, cell-based; conditions: filed as antagonist
Mus musculus [19] = experiment: (§4) In vivo inhibition of renal cystogenesis in Pkd1 knock-out autosomal dominant polycystic kidney disease mouse model assessed as reduction in kidney size at 5 mg/kg, sc administered once daily for 7 days compound pre-irradiated with light at 365 nm prior to administration; assay type: functional, organism-based; conditions: time 7.0 day
[20] = biological target: Serine/threonine-protein kinase mTOR (Homo sapiens) (UniProt P42345); experiment: (§5) Inhibition of mTOR (unknown origin) assessed as inhibition of p70S6K phosphorylation at 10 times Ki preincubated for 30 mins followed by two consecutive washouts and irradiated with light at 365 nm in first 30 mins of washout and with light at 435 nm in second 30 mins of washout by Western blot analysis
Vasopressin V2 receptor [21] = biological target: T1, Vasopressin V2 receptor; experiment: Antagonist activity at human vasopressin V2 receptor expressed in CHO cells assessed as inhibition of cAMP production; assay type: functional, cell-based; conditions: filed as antagonist
[22] = biological target: Serine/threonine-protein kinase mTOR (Homo sapiens) (UniProt P42345); experiment: Inhibition of mTOR (unknown origin) assessed as inhibition of p70S6K phosphorylation at 10 times Ki preincubated for 30 mins followed by two consecutive washouts and irradiated with light at 435 nm during two washouts by Western blot analysis
Vasopressin V2 receptor [23] = biological target: T1, Vasopressin V2 receptor; experiment: as §3, with “vasopressin induced” for “vasopressin-induced”, “365” for “435”, “435” for “365”; assay type: functional, cell-based
Vasopressin V2 receptor [24] = biological target: T1, Vasopressin V2 receptor; experiment: as §2, with “kinetic rate index by measuring ratio of binding of labeled probe” for “residence time”, “15 mins to 60 mins at IC50” for “0.1 uM”; assay type: cell-based; conditions: filed as antagonist
[25] = biological target: Serine/threonine-protein kinase mTOR (Homo sapiens) (UniProt P42345); experiment: as §5, with “435” for “365”, “365” for “435”
[26] = biological target: Serine/threonine-protein kinase mTOR (Homo sapiens) (UniProt P42345); experiment: Inhibition of mTOR (unknown origin) assessed as inhibition of p70S6K phosphorylation at 10 times Ki preincubated for 30 mins followed by two consecutive washouts and irradiated with light at 365 nm during two washouts by Western blot analysis
Mus musculus [27] = experiment: as §4, with “cysts area” for “kidney size”, “administration by Hematoxylin-eosin staining based analysis” for “administration”; assay type: functional, organism-based; conditions: time 7.0 day
Vasopressin V2 receptor [28] = biological target: T1, Vasopressin V2 receptor; experiment: Displacement of conivaptan-red fluorescent probe from SNAP-tagged human vasopressin V2 receptor expressed in HEK293 cells assessed as on-rate constant at 0.1 uM compound pre-illuminated for 10 mins with light at 365 nm by dual-point competition association assay; assay type: cell-based; conditions: filed as antagonist
[29] = biological target: Vasopressin V1a receptor (Homo sapiens) (UniProt P37288); experiment: Displacement of [3H]vasopressin from human V1A receptor expressed in CHO cell membranes at 1 uM compound pre-illuminated for 10 mins with light at 365 nm by radioligand displacement assay relative to control; conditions: Membrane
[30] = In vivo inhibition of renal cystogenesis in Pkd1 knock-out autosomal dominant polycystic kidney disease mouse model assessed as disease progression at 5 mg/kg, sc administered once daily for 7 days compound pre-irradiated with light at 365 nm prior to administration; assay type: functional; design: scale not given: the % may be the effect or the level left; conditions: time 7 day
Mus musculus [31] = experiment: as §4, with “size with fewer cysts” for “size”, “administration by Hematoxylin-eosin staining based analysis” for “administration”; assay type: functional, organism-based; conditions: time 7.0 day
Vasopressin V2 receptor [32] = biological target: T1, Vasopressin V2 receptor; experiment: as §2, with “leftward shift in competition curve” for “residence time”, “nm and measured for 10 to 60 mins” for “nm”; assay type: cell-based; conditions: filed as antagonist, time 10-60 min

SMILES: Cc1ccc(F)cc1/N=N/c1ccc(C(=O)N2Cc3cccn3Cc3ccccc32)c(Cl)c1
Ki (Vasopressin V2 receptor [12]): 577 nM

SMILES: Cc1ccc(F)cc1/N=N\c1ccc(C(=O)N2Cc3cccn3Cc3ccccc32)c(Cl)c1
Ki (Vasopressin V2 receptor [14]): 1700 nM

SMILES: O=C(c1ccc(/N=N/c2ccc(C(F)(F)F)cc2)cc1Cl)N1Cc2cccn2Cc2ccccc21
Ki (Vasopressin V2 receptor [12]): 589 nM

SMILES: O=C(c1ccc(/N=N/c2ccccc2-c2ccccc2)cc1Cl)N1Cc2cccn2Cc2ccccc21
Ki (Vasopressin V2 receptor [12]): 279 nM

SMILES: O=C(c1ccc(/N=N\c2ccccc2-c2ccccc2)cc1Cl)N1Cc2cccn2Cc2ccccc21
Ki (Vasopressin V2 receptor [14]): 787 nM

Continued, in another order:

TIME (Vasopressin V2 receptor [1]): 0.25 h | Drug uptake [2]: 10 nM | K (Vasopressin V2 receptor [3]): 1.1 10^5/M/min | inhibition (Vasopressin V2 receptor [4]): Active | T1/2 (Kidney [5]): 0.483 h | Ratio (Vasopressin V2 receptor [6]): 0.95 | inhibition (Vasopressin V2 receptor [9]): Active | inhibition [10]: < 40% | Ki (Vasopressin V2 receptor [12]): 281 nM | K (Vasopressin V2 receptor [13]): 0.068 min⁻¹
SMILES: Cc1ccc(/N=N/c2ccc(C(=O)N3Cc4cccn4Cc4ccccc43)c(Cl)c2)cc1
inhibition (Kidney [7]): Active | inhibition (Mus musculus [8]): Active | Activity [11]: 18.2%

Ki (Vasopressin V2 receptor [12]): 289 nM
SMILES: O=C(c1ccc(/N=N/c2ccccc2)cc1Cl)N1Cc2cccn2Cc2ccccc21

Ki (Vasopressin V2 receptor [12]): 851 nM
SMILES: O=C(c1ccc(/N=N/c2ccc(F)cc2)cc1Cl)N1Cc2cccn2Cc2ccccc21

Ki (Vasopressin V2 receptor [14]): 1240 nM
SMILES: Cc1ccccc1/N=N\c1ccc(C(=O)N2Cc3cccn3Cc3ccccc32)c(Cl)c1

Ki (Vasopressin V2 receptor [14]): 289 nM
SMILES: O=C(c1ccc(/N=N\c2ccc(F)cc2)cc1Cl)N1Cc2cccn2Cc2ccccc21

inhibition (Vasopressin V2 receptor [15]): inactive | TIME (Vasopressin V2 receptor [16]): 1.07 h | K (Vasopressin V2 receptor [17]): 0.017 min⁻¹ | Drug uptake [2]: 26 nM | inhibition (Vasopressin V2 receptor [18]): Active | inhibition (Vasopressin V2 receptor [4]): Active | T1/2 (Kidney [5]): 1.82 h | inhibition [20]: inactive | inhibition (Vasopressin V2 receptor [21]): Active | inhibition [22]: inactive | inhibition (Vasopressin V2 receptor [23]): inactive | inhibition (Vasopressin V2 receptor [9]): Active | Ratio (Vasopressin V2 receptor [24]): 1.72 | inhibition [25]: inactive | inhibition [26]: Active | Ki (Vasopressin V2 receptor [14]): 40 nM | K (Vasopressin V2 receptor [28]): 6.6 10^5/M/min | inhibition [29]: < 40% | Activity (Vasopressin V2 receptor [32]): Active
SMILES: Cc1ccc(/N=N\c2ccc(C(=O)N3Cc4cccn4Cc4ccccc43)c(Cl)c2)cc1
inhibition (Mus musculus [19]): Active | inhibition (Kidney [7]): Active | inhibition (Mus musculus [27]): Active | Activity [30]: 14.6% | inhibition (Mus musculus [31]): Active
